# Laboratory results: the supplement of paper PMC10307832
# Key:
# Experiment in all cases: relative viability (nuclei count vs DMSO), 5 days (fraction); higher = more cells survive
# YM155 + Foretinib = compound: COCC[n+]1c2c(n(Cc3cnccn3)c1C)C(=O)c1ccccc1C2=O [YM155] + COc1cc2c(Oc3ccc(NC(=O)C4(C(=O)Nc5ccc(F)cc5)CC4)cc3F)ccnc2cc1OCCCN1CCOCC1 [Foretinib] (partner 0.25 µM)
# How it was run: (§1)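 A single step with final 0.05% Triton X-100, 1% formaldehyde and 1 ug/ml Hoechst fixed the cells and stained nuclei 5 days after treatment. Lung cancer cell lines in 1536-well plates had been treated by pin tool the day after seeding with one drug alone or a fixed anchor-drug dose plus five library-drug doses (not always all listed) in √10 steps, and nuclei were counted on 4× images. Relative viability is the ratio of nuclei in treated wells to nuclei in vehicle wells, taken as the median of duplicate plates.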
# YM155 + Pemetrexed = compound: COCC[n+]1c2c(n(Cc3cnccn3)c1C)C(=O)c1ccccc1C2=O [YM155] + Nc1nc2[nH]cc(CCc3ccc(C(=O)N[C@@H](CCC(=O)O)C(=O)O)cc3)c2c(=O)[nH]1 [Pemetrexed] (partner 0.2 µM)
# How it was run: as §1
# YM155 + Trametinib = compound: COCC[n+]1c2c(n(Cc3cnccn3)c1C)C(=O)c1ccccc1C2=O [YM155] + CC(=O)Nc1cccc(-n2c(=O)n(C3CC3)c(=O)c3c(Nc4ccc(I)cc4F)n(C)c(=O)c(C)c32)c1 [Trametinib] (partner 0.02 µM)
# How it was run: as §1
# Quizartinib + Pemetrexed = compound: CC(C)(C)c1cc(NC(=O)Nc2ccc(-c3cn4c(n3)sc3cc(OCCN5CCOCC5)ccc34)cc2)no1 [Quizartinib] + Nc1nc2[nH]cc(CCc3ccc(C(=O)N[C@@H](CCC(=O)O)C(=O)O)cc3)c2c(=O)[nH]1 [Pemetrexed] (partner 0.2 µM)
# How it was run: as §1
Cell Line,relative viability (YM155 + Foretinib; first compound 0.002 µM),relative viability (YM155 + Foretinib; first compound 0.006325 µM),relative viability (YM155 + Foretinib; first compound 0.02 µM),relative viability (YM155 + Foretinib; first compound 0.06325 µM),relative viability (YM155 + Pemetrexed; first compound 0.002 µM),relative viability (YM155 + Pemetrexed; first compound 0.006325 µM),relative viability (YM155 + Pemetrexed; first compound 0.02 µM),relative viability (YM155 + Pemetrexed; first compound 0.06325 µM),relative viability (YM155 + Trametinib; first compound 0.002 µM),relative viability (YM155 + Trametinib; first compound 0.006325 µM),relative viability (YM155 + Trametinib; first compound 0.02 µM),relative viability (YM155 + Trametinib; first compound 0.06325 µM),relative viability (Quizartinib + Pemetrexed; first compound 0.001 µM),relative viability (Quizartinib + Pemetrexed; first compound 0.003162 µM),relative viability (Quizartinib + Pemetrexed; first compound 0.01 µM),relative viability (Quizartinib + Pemetrexed; first compound 0.03162 µM),relative viability (Quizartinib + Pemetrexed; first compound 0.1 µM)
H3255,0.917,0.896,0.998,1.07,0.587,0.627,0.565,0.566,0.583,0.666,0.632,0.542,0.531,0.579,0.546,0.593,0.586
NCI-H1755,0.853,0.934,0.884,0.976,0.647,0.42,0.359,0.434,0.764,0.752,0.751,0.755,0.316,0.399,0.412,0.464,0.378
IA-LM,1.15,1.03,1.33,0.975,,,,,,,,,,,,,
NCI-H23,0.643,0.718,0.959,0.785,,0.655,0.646,0.549,,0.361,0.498,0.225,0.6,0.62,0.639,0.593,0.635
NCI-H661,1.03,1.02,1.03,0.494,0.935,0.961,0.919,0.485,0.496,0.558,0.598,0.525,0.868,0.887,0.926,0.898,0.89
PC-14,0.83,0.911,0.908,1.02,0.126,0.136,0.148,0.141,0.617,0.672,0.36,0.119,0.134,0.143,0.13,,0.162
NCI-H647,1.21,1.11,0.981,0.474,0.189,0.171,0.173,0.164,0.342,0.456,0.463,0.472,0.141,0.125,0.221,0.182,0.19
NCI-H1792,,,,,0.713,0.762,0.805,0.971,0.498,0.366,0.468,0.599,0.624,0.79,0.913,0.69,0.713
SW 900,0.874,0.622,1.15,0.905,,0.492,0.489,0.47,,0.922,0.843,0.809,0.435,0.488,0.422,0.485,0.483
EKVX,0.858,0.757,1.32,0.69,0.431,0.437,0.399,0.234,0.394,0.369,0.376,0.249,,0.363,0.434,0.39,0.351
COR-L23,0.941,0.866,0.658,0.244,0.194,0.198,0.18,0.136,0.629,0.577,0.566,0.192,0.193,0.189,0.208,0.194,0.211
NCI-H1355,0.932,1.02,1.06,0.964,0.979,1.07,1.04,0.997,0.509,0.454,0.473,0.406,0.972,1.03,0.92,1.09,0.935
NCI-H2085,0.887,0.922,0.915,0.629,0.705,0.884,0.911,0.869,0.573,0.659,0.679,0.348,0.82,0.879,0.97,0.836,0.833
A-427,1.08,0.984,0.976,1.05,0.941,1.02,1,0.762,0.739,0.796,0.757,0.526,0.781,0.96,0.84,0.884,0.954
LOU-NH91,0.92,0.98,1.02,0.937,0.361,0.356,0.346,0.343,0.8,0.747,0.807,0.788,0.394,0.397,0.386,0.377,0.436
CAL-12T,1.14,1.16,0.928,0.587,1.23,1.22,1.11,0.569,0.281,0.337,0.346,0.333,1.01,1.01,1.36,0.998,1.49
NCI-H520,0.662,0.671,0.68,0.831,0.534,0.74,0.685,0.694,0.735,0.599,0.75,0.741,,0.557,0.745,0.714,0.477
LCLC-103H,0.802,0.722,0.815,0.839,0.473,0.453,0.416,0.463,0.647,0.637,0.674,0.716,0.419,0.485,0.484,0.464,0.493
NCI-H1651,0.864,0.785,0.84,0.603,0.598,0.599,0.6,0.615,0.863,0.755,0.867,0.962,0.524,0.594,0.665,0.596,0.59
NCI-H2347,0.767,0.907,1.38,0.892,0.542,0.407,0.436,0.39,0.279,0.258,0.306,0.283,0.426,0.382,0.45,0.443,0.456

Cell Line,relative viability (YM155 + Foretinib; first compound 0.002 µM),relative viability (YM155 + Foretinib; first compound 0.006325 µM),relative viability (YM155 + Foretinib; first compound 0.02 µM),relative viability (YM155 + Foretinib; first compound 0.06325 µM),relative viability (YM155 + Pemetrexed; first compound 0.002 µM),relative viability (YM155 + Pemetrexed; first compound 0.006325 µM),relative viability (YM155 + Pemetrexed; first compound 0.02 µM),relative viability (YM155 + Pemetrexed; first compound 0.06325 µM),relative viability (YM155 + Trametinib; first compound 0.002 µM),relative viability (YM155 + Trametinib; first compound 0.006325 µM),relative viability (YM155 + Trametinib; first compound 0.02 µM),relative viability (YM155 + Trametinib; first compound 0.06325 µM),relative viability (Quizartinib + Pemetrexed; first compound 0.001 µM),relative viability (Quizartinib + Pemetrexed; first compound 0.003162 µM),relative viability (Quizartinib + Pemetrexed; first compound 0.01 µM),relative viability (Quizartinib + Pemetrexed; first compound 0.03162 µM),relative viability (Quizartinib + Pemetrexed; first compound 0.1 µM)
LC-2-ad,0.923,0.967,0.884,0.666,0.287,0.248,0.28,0.262,0.928,0.925,0.866,0.87,0.275,0.285,0.268,0.269,0.233
NCI-H3122,0.923,1,0.927,0.933,0.185,0.214,0.189,0.186,0.191,0.202,0.242,0.203,0.185,0.201,0.193,0.2,0.211
NCI-H1563,0.89,0.935,1.09,1.02,0.753,0.726,0.86,0.745,,,,,1.18,0.788,0.8,0.717,0.76
HCC-78,0.53,0.51,0.543,0.586,0.896,0.954,0.935,0.913,0.698,0.756,0.785,0.879,0.915,0.882,0.968,0.869,0.917
LK-2,1.02,1.32,1.29,1.22,0.276,0.287,0.263,0.364,0.631,0.717,0.827,0.851,0.262,0.301,0.285,0.248,0.336
RERF-LC-KJ,0.945,0.837,0.909,0.854,0.487,0.467,0.487,0.471,0.896,0.952,0.942,0.707,0.458,0.493,0.48,0.457,0.492
NCI-H1944,0.818,0.888,0.852,0.91,0.74,0.559,0.587,0.641,0.388,0.332,0.429,0.381,0.55,0.575,0.601,0.654,0.583
ChaGo-K-1,0.854,0.984,0.926,0.854,0.261,0.243,0.26,0.254,0.832,0.929,0.865,0.913,,0.247,0.264,0.26,0.264
NCI-H1734,0.853,0.723,0.914,0.989,0.375,0.404,0.399,0.452,0.672,0.658,0.724,0.741,0.375,0.412,0.407,0.457,0.412
EBC-1,0.0935,0.0954,0.0823,0.089,,,,,,,,,,,,,
NCI-H522,,,,,0.841,0.938,0.92,0.899,0.625,0.711,0.71,0.75,0.948,0.984,0.934,0.948,1.01
NCI-H1623,0.89,0.865,0.987,0.872,,,,,,,,,,,,,
NCI-H1703,0.309,0.355,0.381,0.276,,,,,,,,,,,,,
HCC-44,,,,,0.615,0.722,0.624,0.643,1.05,1.08,1.08,1.15,0.572,0.665,0.655,0.65,0.606
A549,0.923,0.932,1.1,0.624,,,,,,,,,,,,,
ABC-1,1.03,0.824,0.206,0.2,,,,,,,,,,,,,
NCI-H1299,1.12,1.07,1.16,1.04,,,,,,,,,,,,,
NCI-H727,0.951,0.902,1.14,1.03,,,,,0.412,0.396,0.391,0.411,,,,,
Calu-6,0.882,0.845,0.727,0.0962,,,,,,,,,,,,,
